As a reminder, the viability is a read-out of living cells in per cent, often relative to untreated cells.

19 compounds from paper PMC12040169 (PLOS Biology, 2025) can be followed below.

Data set [1] is described as follows: in vitro. More on the design: Viability of infected HeLa host cells, resazurin conversion, bulk resorufin fluorescence relative to DMSO. The conditions noted are these: human, hela cells; bulk resorufin, mean of 2.
Data set [2] relates to T1, C. trachomatis L2/434/Bu expressing GFP (CTL2-GFP).
T1 construct: L2/434/Bu GFP intracellular growth in HeLa cells
The data set is described as follows: microbe, parasite or virus in culture. Also on record: C. trachomatis total inclusion area by high-content imaging, normalised to DMSO. The conditions noted are these: Chlamydia trachomatis, HeLa, 28.5 h; total inclusion area; read-out: % of control remaining. In a few lines: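 Infected cells treated with library compounds were read for bulk GFP (chlamydial growth) and resorufin fluorescence (host viability), then fixed, Hoechst-stained and imaged. Inclusion area and number from GFP, plus nuclei counts, served as additional growth and viability proxies; MICs derived as previously described.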

Data set [3] relates to T2, CTL2-GFP (C. trachomatis L2/434/Bu, GFP-expressing).
T2 construct: L2/434/Bu, GFP-expressing
The data set is described as follows: microbe, parasite or virus in culture. The conditions noted are these: Chlamydia trachomatis, HeLa, 28.5 h; bulk GFP, mean of 2; read-out: % of control remaining. More on the design: Intracellular C. trachomatis growth in HeLa cells, bulk GFP fluorescence relative to DMSO. The method, then:
MICs were calculated as described above.

The structures appear in SMILES notation.

`Cc1ccc(C(=O)NCCCN2CCC3(CC2)OCCc2c3[nH]c3ccccc23)cc1` [CBK113485]: in data set [1], the viability at 28.5 h, 1 µM came out at 86.4%; the viability at 28.5 h, 5 µM is 88%; the viability at 28.5 h, 10 µM worked out at 78.1%. Moreover, in data set [2], the activity at 1 µM came out at 88.7%, the activity at 5 µM is 33.7% and the activity at 10 µM was 5.52%. Further, in data set [3], the activity at 1 µM was 114%, the activity at 5 µM turned out to be 80% and the activity at 10 µM is 21.4%.
Take `CCOC(=O)c1c(C)n(-c2ccc(C)cc2)c2ccc(O)c(CN(C)C)c12` [CBK263499C]: in data set [1], the viability at 28.5 h, 1 µM is 101%; the viability at 28.5 h, 5 µM came out at 93.4%; the viability at 28.5 h, 10 µM was determined as 90.3%. Also, in data set [2], the activity at 1 µM is 89%, the activity at 5 µM was 95.9% and the activity at 10 µM is 12.4%. In addition, in data set [3], the activity at 1 µM was found to be 124%, the activity at 5 µM was found to be 104% and the activity at 10 µM is 38.4%.
With `O=C(NCCc1c[nH]c2ccc(Cl)cc12)c1ccc(Cl)cc1Br` [CBK159755], in data set [1], the viability at 28.5 h, 1 µM came to 89%; the viability at 28.5 h, 5 µM is 88.9%; the viability at 28.5 h, 10 µM is 93.1%. In data set [2], the activity at 1 µM stood at 91%, the activity at 5 µM amounted to 79.9% and the activity at 10 µM came out at 32.4%. For the same compound, in data set [3], the activity at 1 µM came out at 100%, the activity at 5 µM was 71.3% and the activity at 10 µM worked out at 19.1%.
Take `CC(=O)NC[C@H]1CN(c2ccc(C3=CC[S+]([O-])CC3)c(F)c2)C(=O)O1` (some centres unmarked) [CBK017555]: in data set [1], the viability at 28.5 h, 1 µM stood at 88%; the viability at 28.5 h, 5 µM is 95.4%; the viability at 28.5 h, 10 µM came out at 86.3%. Further, in data set [2], the activity at 1 µM stood at 85.7%, the activity at 5 µM amounted to 7.09% and the activity at 10 µM amounted to 1.05%. For the same compound, in data set [3], the activity at 1 µM is 134%, the activity at 5 µM worked out at 11.9% and the activity at 10 µM was 18.3%.
Consider `N=C(N)Nc1nc(-c2ccccc2)c2cc(F)ccc2n1` [CBK267350], for which, in data set [1], the viability at 28.5 h, 1 µM was 107%; the viability at 28.5 h, 5 µM turned out to be 111%; the viability at 28.5 h, 10 µM was found to be 105%. Further, in data set [2], the activity at 1 µM was found to be 90.4%, the activity at 5 µM amounted to 64.6% and the activity at 10 µM is 12.8%. In addition, in data set [3], the activity at 1 µM turned out to be 93.6%, the activity at 5 µM stood at 64.3% and the activity at 10 µM was 16.8%.
As to `COc1ccc([C@@]23CC=C(N(Cc4ccccc4)C(=O)Nc4ccc(F)c(F)c4)C[C@@H]2N(C)CC3)cc1OC` [CBK050179], in data set [1], the viability at 28.5 h, 1 µM amounted to 93.3%; the viability at 28.5 h, 5 µM was determined as 95%; the viability at 28.5 h, 10 µM was found to be 112%. In addition, in data set [2], the activity at 1 µM is 62.1%, the activity at 5 µM was 80.2% and the activity at 10 µM was found to be 52.4%. Further, in data set [3], the activity at 1 µM is 105%, the activity at 5 µM is 86.7% and the activity at 10 µM is 69.8%.
`Oc1ccccc1Nc1nc(NC2CCCC2)c2ccccc2n1` [CBK268402C]: in data set [1], the viability at 28.5 h, 1 µM came out at 90.7%; the viability at 28.5 h, 5 µM was 94.1%; the viability at 28.5 h, 10 µM was determined as 104%. Further, in data set [2], the activity at 1 µM worked out at 43.4%, the activity at 5 µM was 23.2% and the activity at 10 µM is 4.48%. Also, in data set [3], the activity at 1 µM came to 120%, the activity at 5 µM stood at 45.9% and the activity at 10 µM was found to be 9.92%.
With `N=C(N)SCc1csc(-c2ccc(Br)cc2)n1` [CBK017064C], in data set [1], the viability at 28.5 h, 1 µM came out at 90.5%; the viability at 28.5 h, 5 µM came out at 88.9%; the viability at 28.5 h, 10 µM was determined as 91.1%. Besides, in data set [2], the activity at 1 µM is 80.7%, the activity at 5 µM was 91.3% and the activity at 10 µM came to 25.6%. In data set [3], the activity at 1 µM was 126%, the activity at 5 µM came to 97.9% and the activity at 10 µM is 33.1%.
As for `COc1ccc(S(=O)(=O)Nc2ccc(S(=O)(=O)Nc3nccs3)cc2)c([N+](=O)[O-])c1` [CBK266801], in data set [1], the viability at 28.5 h, 1 µM was found to be 110%; the viability at 28.5 h, 5 µM is 123%; the viability at 28.5 h, 10 µM came out at 119%. In data set [2], the activity at 1 µM turned out to be 26.3%, the activity at 5 µM turned out to be 5.01% and the activity at 10 µM was determined as 1.27%. In addition, in data set [3], the activity at 1 µM came to 13.9%, the activity at 5 µM was 4.96% and the activity at 10 µM worked out at 0%.
In the case of `O=[N+]([O-])c1cccc(C(Nc2cccnc2)c2cc(Cl)c3cccnc3c2O)c1` (centres unmarked) [CBK268629], in data set [1], the viability at 28.5 h, 1 µM is 93.9%; the viability at 28.5 h, 5 µM came out at 88.9%; the viability at 28.5 h, 10 µM amounted to 91.6%. In data set [2], the activity at 1 µM came to 104%, the activity at 5 µM stood at 93.6% and the activity at 10 µM came out at 47.5%. In addition, in data set [3], the activity at 1 µM was determined as 102%, the activity at 5 µM was 82% and the activity at 10 µM stood at 56.2%.
With `COc1cccc(CNc2ccc(N3CCOCC3)cc2)c1OCc1ccccc1F` [CBK074406], in data set [1], the viability at 28.5 h, 1 µM worked out at 86.4%; the viability at 28.5 h, 5 µM came to 83.8%; the viability at 28.5 h, 10 µM worked out at 90.9%. Also, in data set [2], the activity at 1 µM was found to be 130%, the activity at 5 µM amounted to 63.6% and the activity at 10 µM came out at 41.5%. Also, in data set [3], the activity at 1 µM is 135%, the activity at 5 µM turned out to be 97.1% and the activity at 10 µM was determined as 65.4%.
As to `CC(C)c1ccc(/C=C/C(=O)NCc2ccc(NS(C)(=O)=O)cc2)cc1` [CBK161512], in data set [1], the viability at 28.5 h, 1 µM is 101%; the viability at 28.5 h, 5 µM came to 104%; the viability at 28.5 h, 10 µM turned out to be 94.9%. In data set [2], the activity at 1 µM was 74.8%, the activity at 5 µM stood at 59.3% and the activity at 10 µM was 20.9%. Also, in data set [3], the activity at 1 µM was 138%, the activity at 5 µM is 96.2% and the activity at 10 µM is 43.8%.
As for `Cc1cc(Br)ccc1C(=O)NCCc1c[nH]c2ccc(Cl)cc12` [CBK159771], in data set [1], the viability at 28.5 h, 1 µM turned out to be 109%; the viability at 28.5 h, 5 µM was determined as 106%; the viability at 28.5 h, 10 µM was 108%. Also, in data set [2], the activity at 1 µM was determined as 116%, the activity at 5 µM amounted to 67.5% and the activity at 10 µM came to 47.4%. In data set [3], the activity at 1 µM came to 95.1%, the activity at 5 µM was found to be 57.5% and the activity at 10 µM came out at 22.3%.
On to `Cc1ccc(S(=O)(=O)Nc2ccc(S(=O)(=O)Nc3nccs3)cc2)c([N+](=O)[O-])c1` [CBK267410], for which, in data set [1], the viability at 28.5 h, 1 µM stood at 110%; the viability at 28.5 h, 5 µM was determined as 97.6%; the viability at 28.5 h, 10 µM came to 98.2%. For the same compound, in data set [2], the activity at 1 µM was 23%, the activity at 5 µM is 5.7% and the activity at 10 µM worked out at 1.86%. Further, in data set [3], the activity at 1 µM turned out to be 17.1%, the activity at 5 µM was 7.21% and the activity at 10 µM was 1.76%.
For `O=C(OCCC1SC(NC2CC3C=CC2C3)=NC1=O)c1ccc(Cl)c([N+](=O)[O-])c1` (centres unmarked) [CBK200060T], in data set [1], the viability at 28.5 h, 1 µM was 92.3%; the viability at 28.5 h, 5 µM stood at 96.8%; the viability at 28.5 h, 10 µM was 88.4%. In data set [2], the activity at 1 µM was determined as 132%, the activity at 5 µM turned out to be 108% and the activity at 10 µM is 68.7%. In data set [3], the activity at 1 µM came out at 140%, the activity at 5 µM came out at 129% and the activity at 10 µM turned out to be 103%.
As for `COC(=O)CCc1ccc(-c2cnc(N)c(-c3ccc(O)cc3)n2)cc1` [CBK122809], in data set [1], the viability at 28.5 h, 1 µM was 114%; the viability at 28.5 h, 5 µM stood at 118%; the viability at 28.5 h, 10 µM came out at 113%. In data set [2], the activity at 1 µM is 92.1%, the activity at 5 µM is 83.5% and the activity at 10 µM is 80.2%. In addition, in data set [3], the activity at 1 µM worked out at 122%, the activity at 5 µM came out at 108% and the activity at 10 µM stood at 93.5%.
Regarding `COc1ccc(-c2csc(/C(C#N)=C/Nc3ccc(S(=O)(=O)Nc4nccs4)cc3)n2)cc1` [CBK262374], in data set [1], the viability at 28.5 h, 1 µM is 99.9%; the viability at 28.5 h, 5 µM stood at 95.6%; the viability at 28.5 h, 10 µM stood at 96.2%. In addition, in data set [2], the activity at 1 µM is 134%, the activity at 5 µM amounted to 95% and the activity at 10 µM was 96.5%. Further, in data set [3], the activity at 1 µM came to 146%, the activity at 5 µM was 131% and the activity at 10 µM was 113%.
`COCCCNS(=O)(=O)c1ccc(-n2ncc(Cl)c(Cl)c2=O)cc1` [CBK305039]: in data set [1], the viability at 28.5 h, 1 µM was found to be 97.7%; the viability at 28.5 h, 5 µM stood at 32.2%; the viability at 28.5 h, 10 µM is 0%. In addition, in data set [2], the activity at 1 µM stood at 73.2% and the activity at 5 µM was determined as 2.13%. Also, in data set [3], the activity at 1 µM is 78.8%, the activity at 5 µM was determined as 24.5% and the activity at 10 µM was 21.2%.
For `CCNC(=O)N1CC2(CCN(Cc3nc4ccccc4[nH]3)CC2)c2ccccc21` [CBK126693], in data set [1], the viability at 28.5 h, 1 µM turned out to be 100%; the viability at 28.5 h, 5 µM is 94.1%; the viability at 28.5 h, 10 µM stood at 96.7%. Moreover, in data set [2], the activity at 1 µM came out at 74.5%, the activity at 5 µM worked out at 89.8% and the activity at 10 µM stood at 65%. Moreover, in data set [3], the activity at 1 µM turned out to be 115%, the activity at 5 µM is 120% and the activity at 10 µM was 109%.
